In PMC12169680, “Design and Mechanistic Analysis of a Potent Bivalent Inhibitor of Transthyretin Amyloid Fibrillogenesis” (Journal of Medicinal Chemistry, 2025):

Key:
[1] = target: T1, wild-type TTR in normal human plasma (Homo sapiens, UniProt P02766); experiment: Displacement of 125I-T4 from TTR in normal human plasma; assay type: binding; conditions: for binding to TTR in plasma, in words: normal human plasma
T1 construct: TTR in whole plasma, from individuals homozygous for wild-type TTR; from tissue; host or cells: whole human plasma from individuals homozygous for wild-type TTR

[2] = target: T2, V122I TTR (Homo sapiens, UniProt P02766, V142I); experiment: Inhibition of mechano-enzymatic fibrillogenesis (ThT); assay type: biochemical; conditions: for antifibrillogenic activity, in words: V122I TTR
T2 construct: 1-127; His6 (N); TEV cleavage site (N); made in house; host or cells: E. coli BL21 (DE3)
Protocol: To test their potency as inhibitors of TTR fibril formation, the 15 ligands were evaluated for their ability to inhibit the mechano-enzymatic mechanism of fibrillogenesis of V122I TTR, which is one of the most common amyloidogenic variants, , causing a disease with severity intermediate between the wild-type and other rare, more aggressive types of amyloidosis. […] Biochemical activity of ligands together with their physicochemical properties (i.e., cLogD, TPSA) were taken into consideration and B26 was finally selected as the most promising lead for further studies (Figure A). […] Prototype mds84 was also included for comparison. […] Although higher molar ratios of the monovalent ligands did inhibit fibrillogenesis, this cannot be replicated in vivo because the negative cooperativity of TTR cannot be overcome at feasible drug dosage. ,
Recombinant V122I TTR at 0.5 mg/mL (9 μM) in PBS, pH 7.4 was preincubated (37 °C for 30 min) with an equimolar concentration of ligand (or DMSO alone) before adding trypsin (5 ng/μL). Protein fibrillogenesis was carried out in glass vials stirred at 1400 rpm (IKA magnetic stirrer), 37 °C and spectrophotometric turbidity at 400 nm was used to monitor fibril formation over time until it reached a plateau at 96 h.
Analysis of amyloid material harvested from each sample at the end of the fibrillogenesis was carried out using Thioflavin T (ThT) emission fluorescence and Congo red staining. For these analyses, samples were centrifuged 20 min at 11,600g and pellets were thoroughly rinsed with PBS to remove nonbound ligand, resuspended with 100 μL PBS, pH 7.4, containing 10 μM Thioflavin T (ThT) in Costar 96-well black-wall plates. Bottom fluorescence values (excitation 440 nm, emission 480 nm) were recorded using a BMG LABTECH FLUostar Omega plate reader. Each value was normalized to the ThT signal of the TTR sample without ligand.

[3] = target: T3, isolated recombinant wild-type TTR (Homo sapiens, UniProt P02766); experiment: Displacement of 125I-T4 from isolated wild-type TTR; assay type: binding; conditions: for IC50 in buffer (bIC50) compared to mds84, in words: isolated TTR; for IC50: ligand concentration reducing binding of 125I-thyroxine by isolated recombinant wild-type TTR by 50%, mean ± SD, read-out: bIC50
T3 construct: Native TTR is a noncovalent homotetramer of β-sheet-rich 127-residue protomers; His6 (N); TEV cleavage site (N); made in house; host or cells: E. coli BL21 (DE3)
Protocol: Competition of ligands with thyroxine for binding by TTR was assayed quantitatively by a previously described procedure.

[4] = residual V122I TTR fibrillar aggregation with equimolar ligand, ThT emission normalized to protein without ligand, mean ± SD
[5] = supplementary CSV, residual V122I TTR aggregation, equimolar ligand
[6] = ligand concentration reducing binding of 125I-thyroxine by wild-type TTR by 50% in normal human plasma, mean ± SD

Structure (SMILES) | binding to TTR in plasma, in words [1] | antifibrillogenic activity, in words ([2]; equimolar ligand) | Agg (%) [2, 4] | Agg (%) [2, 5] | IC50 in buffer (bIC50) compared to mds84, in words [3] | IC50 [3] | IC50 [1, 6] | IC50 ([1]; supplementary CSV, TTR in normal human plasma) | inhibition of V122I TTR amyloid formation at equimolar ligand/protein, in words ([2]; 9 μM V122I TTR, equimolar concentration, bivalent vs monovalent ligands)
O=C(O)CCc1cc(Cl)c(OCC[C@@H](O)[C@H](O)CCOc2ccc(Nc3ccccc3C(=O)O)cc2Cl)c(Cl)c1 [B20, 2-[4-[(3R,4R)-6-[4-(2-Carboxyethyl)-2,6-dichloro-phenoxy]-3,4-dihydroxy-hexoxy]-3-chloro-anilino]-Benzoic Acid] | reduction in the observed potency | reduced potency | 11 ± 4.1% | 11±4.1% | – | – | – | – | –
O=C(O)COCCOCCOCCOc1c(Cl)cc(Nc2ccccc2C(=O)O)cc1Cl [B5, 2-[4-[2-[2-[2-(Carboxymethoxy)-ethoxy]-ethoxy]-ethoxy]-3,5-dichloro-anilino]-Benzoic Acid] | reduced binding | Antifibrillogenic activity was reduced | 28.8 ± 13.4% | 28.8±13.4% | higher values of IC50 | 5000 ± 400 nM | – | – | –
O=C(O)CCc1cc(Cl)c(OCC/C=C/CCOc2c(Cl)cc(Nc3ccccc3C(=O)O)cc2Cl)c(Cl)c1 [B14, 2-[4-[(E)-6-[4-(2-Carboxyethyl)-2,6-dichloro-phenoxy]-hex-3-enoxy]-3,5-dichloro-anilino]-Benzoic Acid] | – | Antifibrillogenic activity was reduced | 13 ± 3.2% | 13±3.2% | – | 80 ± 8 nM | 11000 ± 2900 nM | – | –
O=C(O)CCc1ccc(OCCC(O)C(O)CCOc2c(Cl)cc(Nc3ccccc3C(=O)O)cc2Cl)c(Cl)c1 (stereo not drawn) [B21, 2-[4-[6-[4-(2-Carboxyethyl)-2-chloro-phenoxy]-3,4-dihydroxy-hexoxy]-3,5-dichloro-anilino]-Benzoic Acid] | reduction in the observed potency | reduced potency | 15 ± 2.8% | 15±2.8% | – | 70 ± 4 nM | 4100 ± 2100 nM | – | –
O=C(O)CCc1cc(Cl)c(OCCCOCCOc2c(Cl)cc(Nc3cnncc3C(=O)O)cc2Cl)c(Cl)c1 [B24, 5-[4-[2-[3-[4-(2-Carboxyethyl)-2,6-dichloro-phenoxy]-propoxy]-ethoxy]-3,5-dichloro-anilino]-Pyridazine-4-Carboxylic acid] | slight reduction of binding potency | – | 13 ± 8.2% | 13±8.2% | – | 100 ± 5 nM | 7900 ± 1400 nM | – | –
O=C(O)CCc1cc(Cl)c(OCCCOCCOc2c(Cl)cc(Nc3ccccc3C(=O)O)cc2Cl)c(Cl)c1 [B1, 2-[4-[2-[3-[4-(2-Carboxyethyl)-2,6-dichloro-phenoxy]-propoxy]-ethoxy]-3,5-dichloro-anilino]-Benzoic Acid] | increased the potency of binding | excellent inhibitors of fibrillogenesis | 5.2 ± 3.6% | 5.2±3.6% | – | 100 ± 30 nM | 1100 ± 110 nM | – | –
O=C(O)CCc1cc(Cl)c(OCCCOCCOc2c(Cl)cc(Nc3ccnnc3C(=O)O)cc2Cl)c(Cl)c1 [B25, 4-[4-[2-[3-[4-(2-Carboxyethyl)-2,6-dichloro-phenoxy]-propoxy]-ethoxy]-3,5-dichloro-anilino]-Pyridazine-3-Carboxylic acid] | preservation of the properties | – | 11 ± 4.8% | 11±4.8% | – | – | 3300 ± 1800 nM | – | –
O=C(O)CCc1cc(Cl)c(OCC[C@@H](O)[C@H](O)CCOc2c(Cl)cc(Nc3ccccc3C(=O)O)cc2Cl)c(Cl)c1 [B4A, 2-[4-[(3R,4R)-6-[4-(2-carboxyethyl)-2,6-dichloro-phenoxy]-3,4-dihydroxy-hexoxy]-3,5-dichloro-anilino]-Benzoic Acid] | increased the potency of binding | excellent inhibitors of fibrillogenesis | 3.3 ± 1.2% | 4.4±3.0% | – | 70 ± 9 nM | – | 4400 ± 1200 nM | –
O=C(O)CCc1cc(Cl)c(OCOCCCOc2c(Cl)cc(Nc3ccccc3C(=O)O)cc2Cl)c(Cl)c1 [B8, 2-[4-[3-[[4-(2-Carboxyethyl)-2,6-dichloro-phenoxy]-methoxy]-propoxy]-3,5-dichloro-anilino]-Benzoic Acid] | reduced binding | Antifibrillogenic activity was reduced | 12 ± 3.7% | 12±3.7% | higher values of IC50 | 2100 ± 210 nM | > 150000 nM | – | –
O=C(O)CCc1cc(Cl)c(OCCOCCCCOc2c(Cl)cc(Nc3ccccc3C(=O)O)cc2Cl)c(Cl)c1 [B2, 2-[4-[4-[2-[4-(2-Carboxyethyl)-2,6-dichloro-phenoxy]-ethoxy]-butoxy]-3,5-dichloro-anilino]-Benzoic Acid] | increased the potency of binding | excellent inhibitors of fibrillogenesis | 4.4 ± 1.5% | 4.4±1.5% | – | – | 2600 ± 590 nM | – | –
O=C(O)CCc1ccc(OCC[C@@H](O)[C@H](O)CCOc2ccc(Nc3ccccc3C(=O)O)cc2Cl)c(Cl)c1 [B22, 2-[4-[(3R,4R)-6-[4-(2-Carboxyethyl)-2-chloro-phenoxy]-3,4-dihydroxy-hexoxy]-3-chloro-anilino]Benzoic Acid] | reduction in the observed potency | reduced potency | 15 ± 2.8% | 15±2.8% | – | – | – | – | –
O=C(O)CCOCCCOCCCOCCCOc1c(Cl)cc(Nc2ccccc2C(=O)O)cc1Cl [B6, 2-[4-[3-[3-[3-(2-Carboxy-ethoxy)-propoxy]-propoxy]-propoxy]-3,5-dichloro-anilino]-Benzoic Acid] | reduced binding | Antifibrillogenic activity was reduced | 12 ± 4.4% | 12±4.4% | higher values of IC50 | 1200 ± 410 nM | 40000 ± 13000 nM | – | –
O=C(O)CCc1cc(Cl)c(OCC[C@H](O)[C@@H](O)CCOc2c(Cl)cc(Nc3ccccc3C(=O)O)cc2Cl)c(Cl)c1 [B4, 2-[4-[(3S,4S)-6-[4-(2-Carboxyethyl)-2,6-dichloro-phenoxy]-3,4-dihydroxy-hexoxy]-3,5-dichloro-anilino]-benzoic acid] | increased the potency of binding | excellent inhibitors of fibrillogenesis | 4.4 ± 3.0% | – | – | – | – | – | –
O=C(O)CCc1cc(Cl)c(OCCCOCCOc2c(Cl)cc(Nc3ccncc3C(=O)O)cc2Cl)c(Cl)c1 [B27, 4-[4-[2-[3-[4-(2-Carboxyethyl)-2,6-dichloro-phenoxy]-propoxy]-ethoxy]-3,5-Dichloro-anilino]-Pyridine-3-Carboxylic Acid] | preservation of the properties | – | 12 ± 1.1% | 12±1.1% | – | – | – | – | –
Cc1n[nH]c(C)c1CCCOc1cc(C(=O)O)ccc1F [AG10, acoramidis, reference compound] | – | – | – | – | – | – | – | – | significantly lower inhibitory effect
